pIC50: −log10 of the molar value. Structures can show the parent of a compound that is named as a salt.

Among the data in patent US6943183B2 (Pfizer Inc, priority 2000, dated 2005) are IC50 values, retold here.

The test deals with T1, SF9 affinity purified rat FPT (Rattus norvegicus, UniProt Q02293+Q04631).
T1 construct: made in house; host or cells: Sf9 insect cells
The test is described as follows: PFT (FPT) inhibitory activity assay, radiolabeled farnesyl pyrophosphate and biotinyl peptide, streptavidin beads. It is filed as biochemical. As to conditions: HEPES buffer pH 7.4, 30° C., 30 minutes; read-out: FTase IC50. Put shortly: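 Rat FPT expressed in SF9 cells was incubated 30 minutes at 30° C. with compound (in 10% DMSO), radiolabeled farnesyl pyrophosphate and biotinylated peptide. Buffer: HEPES pH 7.4, ZnCl2 20 μM, MgCl2 and DTT 5 mM each, 0.1% PEG 8000, 5 mM potassium phosphate (also run without phosphate). Product captured on streptavidin beads in magnesium acetate/H3PO4 stop buffer.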
As for `COC(=O)c1cccc(S(=O)(=O)Cc2c(O[C@H](Cn3ccnc3)c3ccccc3)ccc3c2CCCC3=O)c1` [Compound 156], the pIC50 is 8.30.

As to `CC(C)SCc1c(O[C@H](Cn2ccnc2)c2ccccc2)ccc2c1CCCC2=O` [Compound 6, 6-((S)-2-Imidazol-1-yl-1-phenyl-ethoxy)-5-isopropylsulfanylmethyl-2,3,4-trihydronaphthalen-1-one], the pIC50 is 9.40.

Consider `C[C@@H](O)CNC(=O)c1ccc(SCc2c(O[C@H](Cn3ccnc3)c3ccccc3)ccc3c2CCCC3=O)cc1` [Compound 195, N-[(2R)-2-Hydroxypropyl]-4-{[(2-{[(1S)-2-(1H-imidazol-1-yl)-1-phenylethyl]oxy}-5-oxo-5,6,7,8-tetrahydro-1-naphthalenyl)methyl]sulfanyl}benzamide], for which the pIC50 is 9.70.

In the case of `O=C(NCc1ccco1)c1ccc(SCc2c(O[C@H](Cn3ccnc3)c3ccccc3)ccc3c2CCCC3=O)cc1` [Compound 238, N-(2-Furylmethyl)-4-{[(2-{[(1S)-2-(1H-imidazol-1-yl)-1-phenylethyl]oxy}-5-oxo-5,6,7,8-tetrahydro-1-naphthalenyl)methyl]sulfanyl}benzamide], the pIC50 was 9.70.

In the case of `O=C1CCCc2c1ccc(O[C@H](Cn1ccnc1)c1ccccc1)c2COCc1ccccc1` [Compound 16, 6-((1S)-2-Imidazolyl-1-phenylethoxy)-5-[(phenylmethoxy)methyl]-2,3,4-trihydronaphthalen-1-one], the negative-log IC50 (pIC50) is 9.10.

Turning to `O=C1CCCc2c1ccc(O[C@H](Cn1ccnc1)c1ccccc1)c2CNc1ccccc1` [Compound 11], the negative logarithm of the IC50 (pIC50) was 9.70.

Consider `O=C1CCCc2c1ccc(O[C@H](Cn1ccnc1)c1ccccc1)c2COc1ccccc1` [Compound 66, 6-((1S)-2-Imidazolyl-1-phenylethoxy)-5-(phenoxymethyl)-2,3,4-trihydronaphthalen-1-one], for which the pIC50 is 7.92.

As to `O=C1CCCc2c1ccc(O[C@H](Cn1ccnc1)c1ccccc1)c2CSc1ccccc1` [Compound 1, 6-((1S)-2-Imidazolyl-1-phenylethoxy)-5-(phenylthiomethyl)-2,3,4-trihydronaphthalen-1-one], the pIC50 was 9.52.

As for `O=C1CCCc2c1ccc(O[C@H](Cn1ccnc1)c1ccccc1)c2-c1cccc(Cl)c1` [Compound 22, 6-((1S)-2-Imidazolyl-1-phenylethoxy)-5-(3-chlorophenyl)-2,3,4-trihydronaphthalen-1-one], the pIC50 is 7.59.

For the compound “6-((1S)-2-Indazolyl-1-phenylethoxy)-5-amino-2,3,4-trihydronaphthalen-1-one [Compound 37]”, the pIC50 was 7.89.

Turning to `O=C1CCCc2c1ccc(O[C@H](Cn1ccnc1)c1ccccc1)c2COc1ccccc1Cl` [Compound 106], the pIC50 was 8.22.

As for `O=C1CCC(c2cccc(Cl)c2)c2cc(O[C@H](Cn3ccnc3)c3ccccc3)ccc21` (stereo partly drawn) [Compound 47, 6-((1S)-2-Imidazolyl-1-phenylethoxy)-4-(3-chlorophenyl)-2,3,4-trihydronaphthalen-1-one], the pIC50 is 8.70.

`CN(C)CCNC(=O)c1cccc(SCc2c(O[C@H](Cn3ccnc3)c3ccccc3)ccc3c2CCCC3=O)c1` [Compound 178, N-[2-(Dimethylamino)ethyl]-3-{[(2-{[(1S)-2-(1H-imidazol-1-yl)-1-phenylethyl]oxy}-5-oxo-5,6,7,8-tetrahydro-1-naphthalenyl)methyl]sulfanyl}benzamide]: the pIC50 was 8.10.

With `CC(C)OCc1c(O[C@H](Cn2ccnc2)c2ccccc2)ccc2c1CCCC2=O` [Compound 15, hydrochloride], the pIC50 is 9.70.

For the compound `C=CCc1c(OC(Cn2ccnc2)c2ccccc2)ccc2c1CCCC2=O` (racemic) [Compound 49, (±)-6-(2-imidazolyl-1-phenylethoxy)-5-prop-2-ethyl-2,3,4-trihydronaphthalen-1-one], the negative logarithm of the IC50 (pIC50) was 7.77.

For the compound `CN(Cc1c(O[C@H](Cn2ccnc2)c2ccccc2)ccc2c1CCCC2=O)c1ccccc1` [Compound 12], the pIC50 is 8.40.

For `COC(=O)CSCc1c(O[C@H](Cn2ccnc2)c2ccccc2)ccc2c1CCCC2=O` [Compound 10b, [2-(2-Imidazol-1-yl-1(S)-phenyl-ethoxy)-5-oxo-5,6,7,8-tetrahydro-naphthalen-1-ylmethylsulfanyl]-acetic acid methyl ester], the pIC50 was 8.60.

As for `CC(C)(Cn1ccnc1)Oc1ccc2c(c1CCc1ccccc1)CCCC2=O` [Compound 58a, 6-[2-(1H-Imidazol-1-yl)-1,1-dimethylethoxy]-5-(2-phenylethyl)-3,4-dihydro-1(2H)-naphthalenone], the pIC50 was 8.80.

Turning to `CCOC(=O)C(C)NC(=O)c1ccccc1SCc1c(O[C@H](Cn2ccnc2)c2ccccc2)ccc2c1CCCC2=O` (stereo partly drawn) [Compound 186, Ethyl 2-[(2-{[(2-{[(1S)-2-(1H-Imidazol-1-yl)-1-phenylethyl]oxy}-5-oxo-5,6,7,8-tetrahydro-1-naphthalenyl)methyl]sulfanyl}benzoyl)amino]propanoate], the pIC50 was 8.40.

For `C[C@H](O)CNC(=O)c1ccc(SCc2c(O[C@H](Cn3ccnc3)c3ccccc3)ccc3c2CCCC3=O)cc1` [Compound 196, N-[(2S)-2-Hydroxypropyl]-4-{[(2-{[(1S)-2-(1H-imidazol-1-yl)-1-phenylethyl]oxy}-5-oxo-5,6,7,8-tetrahydro-1-naphthalenyl)methyl]sulfanyl}benzamide], the pIC50 was 9.70.

For `CC(C)Cc1c(O[C@H](Cn2ccnc2)c2ccccc2)ccc2c1CCCC2=O` [Compound 55, 6-((1S)-2-Imidazolyl-1-phenylethoxy)-5-(2-methylpropyl)-2,3,4-trihydronaphthalen-1-one], the pIC50 was 9.00.

Turning to `O=C(NC1CCCC1)c1cccc(SCc2c(O[C@H](Cn3ccnc3)c3ccccc3)ccc3c2CCCC3=O)c1` [Compound 221, N-Cyclopentyl-3-{[(2-{[(1S)-2-(1H-imidazol-1-yl)-1-phenylethyl]oxy}-5-oxo-5,6,7,8-tetrahydro-1-naphthalenyl)methyl]sulfanyl}benzamide], the pIC50 was 9.70.

Consider `O=C1CCCc2c1ccc(O[C@H](Cn1ccnc1)c1ccccc1)c2CCc1ccccn1` [Compound 24, 6-((1S)-2-Imidazolyl-1-phenylethoxy)-5-(2-(2-pyridyl)ethyl)-2,3,4-trihydronaphthalen-1-one], for which the pIC50 is 9.40.

As for `CC[C@H](CO)NC(=O)c1cccc(S(=O)(=O)Cc2c(O[C@H](Cn3ccnc3)c3ccccc3)ccc3c2CCCC3=O)c1` [Compound 242, N-[(1R)-1-(Hydroxymethyl)propyl]-3-{[(2-{[(1S)-2-(1H-imidazol-1-yl)-1-phenylethyl]oxy}-5-oxo-5,6,7,8-tetrahydro-1-naphthalenyl)methyl]sulfonyl}benzamide], the pIC50 is 9.70.

Take `O=C(O)CCNC(=O)c1cccc(SCc2c(O[C@H](Cn3ccnc3)c3ccccc3)ccc3c2CCCC3=O)c1` [Compound 171, N-3-{[(2-{[(1S)-2-(1H-Imidazol-1-yl)-1-phenylethyl]oxy}-5-oxo-5,6,7,8-tetrahydro-1-naphthalenyl)methyl]sulfanyl}benzoyl-β-alanine]: the pIC50 was 8.22.

Consider `COc1ccc(OCc2c(O[C@H](Cn3ccnc3)c3ccccc3)ccc3c2CCCC3=O)cc1` [Compound 65], for which the pIC50 is 9.40.

As to `C[C@H](O)CNC(=O)c1ccccc1SCc1c(O[C@H](Cn2ccnc2)c2ccccc2)ccc2c1CCCC2=O` [Compound 198, N-[(2S)-2-Hydroxypropyl]-2-{[(2-{[(1S)-2-(1H-imidazol-1-yl)-1-phenylethyl]oxy}-5-oxo-5,6,7,8-tetrahydro-1-naphthalenyl)methyl]sulfanyl}benzamide], the pIC50 is 9.70.

In the case of `O=C1CCCc2c1ccc(O[C@H](Cn1ccnc1)c1ccccc1)c2COc1ccc2ncccc2c1` [Compound 107, 6-((1S)-2-Imidazolyl-1-phenylethoxy)-5-(6-quinolyloxymethyl)-2,3,4-trihydronaphthalen-1-one], the negative-log IC50 (pIC50) was 8.00.

`COC(=O)c1ccc(SCc2c(O[C@H](Cn3ccnc3)c3ccccc3)ccc3c2CCCC3=O)cc1` [Compound 157, Methyl 4-{[(2-{[(1S)-2-(1H-Imidazol-1-yl)-1-phenylethyl]oxy}-5-oxo-5,6,7,8-tetrahydro-1-naphthalenyl)methyl]sulfanyl}benzoate]: the pIC50 was 8.40.

For `O=C(NCCO)c1ccc(SCc2c(O[C@H](Cn3ccnc3)c3ccccc3)ccc3c2CCCC3=O)cc1` [Compound 174, N-(2-Hydroxyethyl)-4-{[(2-{[(1S)-2-(1H-imidazol-1-yl)-1-phenylethyl]oxy}-5-oxo-5,6,7,8-tetrahydro-1-naphthalenyl)methyl]sulfanyl}benzamide], the pIC50 is 8.52.

In the case of `O=C(NCc1ccco1)c1ccccc1SCc1c(O[C@H](Cn2ccnc2)c2ccccc2)ccc2c1CCCC2=O` [Compound 240, N-(2-Furylmethyl)-2-{[(2-{[(1S)-2-(1H-imidazol-1-yl)-1-phenylethyl]oxy}-5-oxo-5,6,7,8-tetrahydro-1-naphthalenyl)methyl]sulfanyl}benzamide], the pIC50 was 9.70.

Regarding `COC(=O)c1ccccc1OCc1c(O[C@H](Cn2ccnc2)c2ccccc2)ccc2c1CCCC2=O` [Compound 81, Methyl 2-{[2-((1S)-2-imidazolyl-1-phenylethoxy)-5-oxo-6,7,8-trihydronaphthyl]methoxy}benzoate], the pIC50 is 8.40.

`O=C1CCCc2c1ccc(O[C@H](Cn1ccnc1)c1ccccc1)c2CSc1cccc2ccccc12` [Compound 10a, 6-((S)-2-Imidazol-1-yl-1-phenyl-ethoxy)-5-(naphthalen-1-ylsulfanylmethyl)-3,4-dihydro-2H-naphthalen-1-one]: the negative logarithm of the IC50 (pIC50) was 7.52.

With `O=C(NCc1ccco1)c1cccc(SCc2c(O[C@H](Cn3ccnc3)c3ccccc3)ccc3c2CCCC3=O)c1` [Compound 239, N-(2-Furylmethyl)-3-{[(2-{[(1S)-2-(1H-imidazol-1-yl)-1-phenylethyl]oxy}-5-oxo-5,6,7,8-tetrahydro-1-naphthalenyl)methyl]sulfanyl}benzamide], the pIC50 was 9.52.
